Results from US8512748B2, “Controlled release system and method for manufacturing the same” (Boehringer Ingelheim International GmbH, priority 2006, dated 2013).

Assay: pH-dependent aqueous solubility of the active ingredient
Format: physicochemical

With `O=c1[nH]c2ccccc2n1CCN1CCN(c2cccc(C(F)(F)F)c2)CC1` [active ingredient, 1-[2-(4-(3-trifluoromethyl-phenyl)piperazin-1-yl)ethyl]-2,3-dihydro-1H-benzimidazol-2-one] the solubility (pH 2) was “good solubility” and the aqueous solubility (pH values 5.5-6.8) was “poor”.
